Results reported in patent US9795602B2, “Polycyclic-carbamoylpyridone compounds and their pharmaceutical use” (Gilead Sciences, Inc., priority 2014, dated 2017).
Like-named read-outs stand apart in the source and are kept apart here.

Columns and labels:
Format in all cases: cell-based
[1] = Cytotoxicity (CC50) in MT4 cells, mock-infected; details: human
Protocol: (§1) Infected and uninfected cells are diluted in cell growth medium and 35 μL of 2000 (for MT4) cells is added to each well of the assay plates. Assay plates were then incubated in a 37° C. incubator. After 5 days of incubation, 25 μL of 2× concentrated CellTiter-Glo™ Reagent (catalog # G7573, Promega Biosciences, Inc., Madison, Wis.) was added to each well of the assay plate. Cell lysis was carried out by incubating at room temperature for 2-3 minutes, and then chemiluminescence was read using the Envision reader (PerkinElmer).

[2] = target: PXR (NR1I2) (Homo sapiens (Human), UniProt O75469); assay: Human PXR activation assay (luciferase reporter, DPX2 cells); details: human
PXR (NR1I2), sequence (O75469 whole entry): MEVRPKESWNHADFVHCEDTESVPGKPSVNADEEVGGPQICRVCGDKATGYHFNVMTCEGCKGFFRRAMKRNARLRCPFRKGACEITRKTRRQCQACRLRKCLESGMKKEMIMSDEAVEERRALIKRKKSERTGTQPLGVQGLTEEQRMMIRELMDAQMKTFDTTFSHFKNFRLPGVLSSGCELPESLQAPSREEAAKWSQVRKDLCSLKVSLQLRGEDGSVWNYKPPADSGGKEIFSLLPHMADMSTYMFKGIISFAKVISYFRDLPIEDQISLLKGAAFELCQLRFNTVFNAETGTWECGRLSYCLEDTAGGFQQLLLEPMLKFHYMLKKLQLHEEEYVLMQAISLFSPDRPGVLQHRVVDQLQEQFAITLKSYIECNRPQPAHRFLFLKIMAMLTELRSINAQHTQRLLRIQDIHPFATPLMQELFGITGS
Protocol: Luciferase Reporter Gene Assay.
A stably transformed tumor cell line (DPX2) was plated on 96-well microtiter plates. […]. The number of viable cells was determined and the reporter gene activity was assessed. […]

[3] = system: HIV-IIIb; assay: Antiviral assay in MT4 cells; details: Human immunodeficiency virus 1, IIIB, MT4, 120 h
Protocol: 1 mL aliquots of 2×10^6 MT4 cells are pre-infected for 1 and 3 hours respectively at 37° C. with 25 μL (MT4) or of either cell growth medium (mock-infected) or a fresh 1:250 dilution of an HIV-IIIb concentrated ABI stock (0.004 m.o.i. for MT4 cells). Infected and uninfected cells are diluted in cell growth medium and 35 μL of 2000 (for MT4) cells is added to each well of the assay plates.
as §1, with “Assay” for “Infected and uninfected cells are diluted in cell growth medium and 35 μL of 2000 (for MT4) cells is added to each well of the assay plates. Assay”

[4] = 15 uM, DPX2 cells, % Emax relative to rifampicin, adjusted for DMSO background, read-out: PXR % inh at 15 uM (adjusted)
[5] = MT4 cells, HIV-IIIb, 5 days, read-out: EC50

Row | SMILES | inhibition at 24 h, 15 µM [2, 4] [%] | EC50 [3, 5] [µM] | CC50 at 5 days ([1]; mock-infected (uninfected)) [µM] | other results
1 | CCN1C(=O)c2c(O)c(=O)c(C(=O)NCc3cc(Cl)c(F)cc3F)cn2[C@H]2CCOC[C@H]21 [Compound 15] | 6 | 0.00792 | 14.9 | –
2 | CN1C(=O)c2c(O)c(=O)c(C(=O)NCc3c(F)cc(F)cc3F)cn2[C@H]2COCC[C@]21C(F)F [Compound 9] | – | – | 11.3 | inhibition at 15 µM [2]: 27%; EC50 [3]: 0.0014 µM
3 | CCN1C(=O)c2c(O)c(=O)c(C(=O)NCc3cccc(F)c3F)cn2[C@H]2CCOC[C@H]21 [Compound 18] | 2 | 0.00333 | 26.9 | –
4 | CN1C(=O)c2c(O)c(=O)c(C(=O)NCc3c(F)cc(F)cc3F)cn2[C@@H]2CCCC[C@H]21 [Compound 1] | – | 0.00643 | 27.3 | inhibition at 24 h, 15 µM [2]: 32%
5 | O=C(NCc1c(F)cc(F)cc1F)c1cn2c(c(O)c1=O)C(=O)N(C1CC1)[C@H]1OCC[C@H]12 (racemic) [Compound 21] | 6 | 0.00345 | – | CC50 at 5 days ([1]; mock-infected): 31.1 µM
6 | CN1C(=O)c2c(O)c(=O)c(C(=O)NCc3c(F)cc(F)cc3F)cn2[C@@H]2CCC[C@@H]21 [Compound 29] | – | – | – | inhibition at 15 µM [2, 4]: 49%
7 | CN1C(=O)c2c(O)c(=O)c(C(=O)NCc3c(F)cc(F)cc3F)cn2[C@@H]2CCOC[C@H]21 [Compound 10] | – | 0.00765 | 34.9 | –
8 | CN1C(=O)c2c(O)c(=O)c(C(=O)NCc3c(F)cc(F)cc3F)cn2[C@@H]2CCCC[C@@H]21 [Compound 3] | – | 0.00296 | 11 | –
9 | CN1C(=O)c2c(O)c(=O)c(C(=O)NCc3c(F)cc(F)cc3F)cn2[C@H]2CCC[C@H]21 [Compound 58] | – | – | – | inhibition at 15 µM [2, 4]: 25%

Further lines, with some results ahead:

Row | inhibition at 24 h, 15 µM [2, 4] [%] | EC50 [3, 5] [µM] | SMILES | CC50 at 5 days ([1]; mock-infected (uninfected)) [µM] | other results
10 | 29 | 0.00729 | CCCN1C(=O)c2c(O)c(=O)c(C(=O)NCc3c(F)cc(F)cc3F)cn2[C@@H]2CCO[C@@H]21 (racemic) [Compound 24] | – | CC50 at 5 days ([1]; mock-infected): 37.5 µM
11 | 20 | 0.00458 | CCN1C(=O)c2c(O)c(=O)c(C(=O)NCc3ccc(F)c(Cl)c3F)cn2[C@@H]2CCO[C@@H]21 [Compound 25a] | 25.9 | –
12 | 2 | 0.00191 | C[C@@H]1OCC[C@H]2[C@@H]1N(C)C(=O)c1c(O)c(=O)c(C(=O)NCc3ccc(F)c(Cl)c3F)cn12 [Compound 55, (4S,4aS,11aS)-N-(3-chloro-2,4-difluorobenzyl)-7-hydroxy-4,5-dimethyl-6,8-dioxo-1,2,4,4a,5,6,8,11a-octahydropyrano[3,4-e]pyrido[1,2-a]pyrazine-9-carboxamide] | – | CC50 at 5 days ([1]; mock-infected): 9.66 µM
13 | 13 | 0.00288 | CN1C(=O)c2c(O)c(=O)c(C(=O)NCc3c(F)cc(F)cc3F)cn2[C@@H]2COC[C@@H]21 [Compound 43] | 11.3 | –
14 | 46 | 0.00604 | CN1C(=O)c2c(O)c(=O)c(C(=O)NCc3c(F)cc(F)cc3F)cn2[C@H]2[C@@H]3C[C@@H]3C[C@H]21 [Compound 53, (6aR,7aR,8aR,8bS)-4-hydroxy-6-methyl-3,5-dioxo-N-(2,4,6-trifluorobenzyl)-5,6,6a,7,7a,8,8a, 8b-octahydro-3H-cyclopropa[3,4]cyclopenta[1,2-e]pyrido[1,2-a]pyrazine-2-carboxamide] | – | CC50 at 5 days ([1]; mock-infected): 13.3 µM
15 | 33 | 0.00726 | CCN1C(=O)c2c(O)c(=O)c(C(=O)NCc3c(F)cc(F)cc3F)cn2[C@@H]2COC[C@@H]21 [Compound 45] | 36.7 | –
16 | 5 | 0.00158 | O=C(NCc1ccc(F)c(Cl)c1F)c1cn2c(c(O)c1=O)C(=O)N(CC(F)F)[C@@H]1COCC[C@@H]12 [Compound 36] | 19.7 | –
17 | – | 0.00131 | CCN1C(=O)c2c(O)c(=O)c(C(=O)NCc3c(F)cc(F)cc3F)cn2[C@H]2CCC3(C[C@H]21)OCCO3 [Compound 40b] | 23.1 | inhibition at 24 h, 15 µM [2]: 22%
18 | – | 0.00117 | CN1C(=O)c2c(O)c(=O)c(C(=O)NCc3ccc(F)c(Cl)c3F)cn2[C@@H]2CCO[C@@H]21 [Compound 27] | 57.1 | –
